In US20250235446A1, “COMPOSITION FOR INHIBITING METASTASIS AND ENHANCING ANTICANCER DRUG SENSITIVITY” (Korea Advanced Institute of Science and Technology, priority 2020, published 2025):

Legend:
A549 cells [1] = experiment: Western blot of phenotype-related proteins (E-CAD, ZEB1) in EMT-induced lung cancer cells; type: cell-based
Experimental: The activity of TGF-β in a tumor microenvironment performs various functions, such as promoting cancer growth and EMT. Cancer cells were treated with TGF-β, an external stimulus, to induce EMT, and the results were illustrated in FIG. 1. To this end, A549 cells (KCBL No. 10185) as a lung cancer cell line were purchased from the Korean Cell Line Bank (KCLB). EMT was induced by treating the A549 cells with TGF-β (5 ng/mL, Peprotech, Cranbury, NJ, USA) for 48 hours. Changes in protein expression of cancer cells were confirmed through western blot analysis in the following process. First, cells were lysed in a lysis buffer [including 20 mM HEPES, pH 7.2, 150 mM NaCl, 0.5% Triton X-100, 10% glycerol, protease/phosphatase inhibitor mixture (protease/phosphatase inhibitor cocktail (Thermofisher, Waltham, MA))]. The lysate was centrifuged at 13,000 rpm at 4° C. for 20 minutes, and the supernatant was obtained and separated by SDS-PAGE, and then subjected to western blot analysis. To observe the amounts of proteins, E-cadherin (sc-21791), p53 (sc-126), SMAD4 (sc-7966), ZEB1 (sc-515797), mouse IgG (sc-2025) and rabbit IgG (#sc-2027) antibodies (purchased from Santa Cruz Biotechnology (Santa Cruz, CA, USA)) were used. In addition, ERK1/2 (#9102), phospho-ERK1/2 (#9106), phospho-MEK1/2 (#9121) and MYC (#13987) antibodies (Cell Signaling Technology (Beverly, MA, USA)) were used and the amounts of the proteins were observed. In addition, the rabbit polyclonal anti-GAPDH antibody was provided and used from the Korea Research Institute of Bioscience and Biotechnology.
TGF-β-treated cancer cells and -untreated cancer cells were treated with Nutlin-3a (5 μM, Sigma, St. Louis, Mo) to activate p53. It was confirmed whether the epithelial cell phenotype was restored according to p53 activation, and the results were shown in FIG. 2. At this time, after inducing EMT of A549 cells under the same conditions as in Example 1-1, Nutlin-3a (1 μM, Sigma, St. Louis, Mo) was treated, and Western blot and qRT-PCR were performed in the same method as in Example 1-1. […]

A549 cells [2] = experiment: qRT-PCR of genes related to mesenchymal cells, epithelial cells and stemness; type: cell-based
Experimental: In addition, qRT-PCR was performed to perform transcript analysis for all genes (n=3, mean±SD). The qRT-PCR analysis was performed using a PCR system (Veriti 96well Thermal Cycler, Applied Biosystems, Waltham, MA, USA), and the qRT-PCR analysis was performed using the QuantStudio 5 real-time PCR system (Applied Biosystems, Foster City, CA), samples containing 20 μL of cDNA, primers, and SYBR Master Mix (Genet Bio, Daejeon, Korea).
TGF-β-treated cancer cells and -untreated cancer cells were treated with Nutlin-3a (5 μM, Sigma, St. Louis, Mo) to activate p53. It was confirmed whether the epithelial cell phenotype was restored according to p53 activation, and the results were shown in FIG. 2. At this time, after inducing EMT of A549 cells under the same conditions as in Example 1-1, Nutlin-3a (1 μM, Sigma, St. Louis, Mo) was treated, and Western blot and qRT-PCR were performed in the same method as in Example 1-1.
In addition, in order to measure cell viability, the A549 cells from which the SMAD4 gene was deleted as described above were seeded in a 96-well plate and after 24 hours, EMT was induced and Nutlin-3a (1 μM) was treated, and then an anticancer drug 5-FU (1 μM) or DOX (0.5 μM) was treated for 5 days. In FIG. 4A, after 5 days, the cells were imaged using IncuCyte ZOOM (Sartorius, Gottingen, Germany), and the cell viability was measured by confluence of adherent living cells using IncuCyte software. In addition, the results were confirmed by qRT-PCR in the same manner as in Example 1-1 and illustrated in FIG. 4B (n=3, mean±SD).
Alternatively, in the same manner as in Example 2, the A549 cells from which the SMAD4 gene was deleted were treated with shRNAs set forth in SEQ ID NO: 2 (shERK1) and SEQ ID NO: 3 (shERK2), thereby deleting the ERK gene. Then, the results were confirmed by western blot analysis or qRT-PCR (n=3, mean±SD).

[3] = A549 cells, TGF-β 5 ng/mL for 48 hours

Compound: COc1ccc(C2=N[C@@H](c3ccc(Cl)cc3)[C@@H](c3ccc(Cl)cc3)N2C(=O)N2CCNC(=O)C2)c(OC(C)C)c1 [Nutlin-3a]
- epithelial cell phenotype (E-CAD+/ZEB1−), protein expression (A549 cells [1]; TGF-β-treated A549 cells (TGF-β maintained)): converged to inactivation of E-CAD and inactivation of ZEB1
- epithelial cell phenotype (E-CAD+/ZEB1−), protein expression (A549 cells [1]; TGF-β-untreated A549 cells): restored
- activity of SNAI1 gene (mesenchymal) (A549 cells [2]; TGF-β-treated A549 cells): suppressed
- activity of TWIST1 gene (mesenchymal) (A549 cells [2]; TGF-β-treated A549 cells): almost no change
- activity of ZEB1 gene (mesenchymal) (A549 cells [2]; TGF-β-treated A549 cells): significantly inhibited
- activity of genes CDH1 and EpCAM related to epithelial cells (A549 cells [2]; TGF-β-treated A549 cells): rather decreased or still showed the low activity

Compound: transforming growth factor beta [TGF-β]
- expression of the E-cadherin protein (A549 cells [1]; [3]): reduced
- expression of GRHL2 and OVOL1 genes related to epithelial cells (A549 cells [2]; [3]): did not show significant changes
- expression of genes CDH1 and EpCAM related to epithelial cells (A549 cells [2]; [3]): reduced
- expression of genes SMAD4, ZEB1, VIM, SNAI1, SNAI2 related to mesenchymal cells (A549 cells [2]; [3]): activated
